Literature values as cited in patent US10525099B2, “Orally disintegrating solid pharmaceutical dosage unit containing a partus control substance” (Oxytone Bioscience B.V., priority 2014, dated 2020).
Bridge positions count the residues as written; N and C are the ends. Square brackets hold non-standard residues; d marks the D form. Peptide text beside a SMILES is read from it. Orn = NCCC[C@H](N)C(=O)O; Mpa = O=C(O)CCS

Tests used:
[1] = in vivo
[2] = lyophilized

Row | SMILES | half-life in the blood [1] | time stable at room temperature [2]
1 | CC[C@H](C)[C@@H]1NC(=O)[C@H](Cc2ccc(O)cc2)NC(=O)[C@@H](N)CSSC[C@@H](C(=O)N2CCC[C@H]2C(=O)N[C@@H](CC(C)C)C(=O)NCC(N)=O)NC(=O)[C@H](CC(N)=O)NC(=O)[C@H](CCC(N)=O)NC1=O [Oxytocin, cysteine-tyrosine-isoleucine-glutamine-asparagine-cysteine-proline-leucine-glycine-amide] | about three | 
2 | CCOc1ccc(C[C@H]2NC(=O)CCSSC[C@@H](C(=O)N3CCC[C@H]3C(=O)N[C@@H](CCCN)C(=O)NCC(N)=O)NC(=O)[C@H](CC(N)=O)NC(=O)[C@H]([C@@H](C)O)NC(=O)[C@H]([C@@H](C)CC)NC2=O)cc1 [atosiban] ([Mpa][dY](Et)ITNCP[Orn]G-NH2; disulfide 1-6) |  | 3 weeks
